The values below come from patent US12582641B2, “Sulfur-containing compound based on glutarimide skeleton and application thereof” (SHANGHAITECH UNIVERSITY, priority 2019, dated 2026).

Molecules are shown by their SMILES.

This test deals with MM.1S cells. The test can be described thus: Proliferation inhibition (IC50) in MM.1S cells, cell viability assay. The conditions noted are these: Homo sapiens, MM1.S, 72 h, read-out: IC50 (nM), proliferation inhibitory activity of MM.1S cells (half inhibitory concentration).
Consider `CN1CCCN(CCCCCCCCSc2cccc3c2CN(C2CCC(=O)NC2=O)C3=O)CC1` (centres unmarked) [SIAIS1220051, 3-(4-((8-(4-methyl-1,4-diazepan-1-yl)octyl)thio)-1-oxoisoindolin-2-yl)piperidine-2,6-dione], for which the IC50 came to 0.75 nM.

Regarding `O=C1CCC(N2Cc3c(SCCCCCCCCN4CCC(F)(F)CC4)cccc3C2=O)C(=O)N1` (centres unmarked) [SIAIS1220055, 3-(4-((8-(4,4-difluoropiperidin-1-yl)octyl)thio)-1-oxoisoindolin-2-yl)piperidine-2,6-dione], the IC50 worked out at 0.26 nM.

For the compound `CC1CN(CCCCCCCCSc2cccc3c2CN(C2CCC(=O)NC2=O)C3=O)CC(C)N1` (centres unmarked) [SIAIS1220057, 3-(4-((8-(3,5-dimethylpiperazin-1-yl)octyl)thio)-1-oxoisoindolin-2-yl)piperidine-2,6-dione], the IC50 is 0.77 nM.

As for `O=C1CCC(N2Cc3c(SCCCCCCCCCSc4cccc5c4CN(C4CCC(=O)NC4=O)C5=O)cccc3C2=O)C(=O)N1` (centres unmarked) [SIAIS1220059B, 3,3′-((nonane-1,9-diylbis(sulfanediyl))bis(1-oxoisoindoline-4,2-diyl))bis(piperidine-2,6-dione)], the IC50 worked out at 1.7 nM.

Regarding `O=C1CCC(N2Cc3c(SCCCCCCCCN4CCN(CCCCCCCCSc5cccc6c5CN(C5CCC(=O)NC5=O)C6=O)CC4)cccc3C2=O)C(=O)N1` (centres unmarked) [SIAIS1220061, 3,3′-(((piperazine-1,4-diylbis(octane-8,1-diyl))bis(sulfanediyl))bis(1-oxoisoindoline-4,2-diyl))bis(piperidine-2,6-dione)], the IC50 is 0.49 nM.

On to `O=C1CCC(N2Cc3c(SCCCCCCCCCN4CCOCC4)cccc3C2=O)C(=O)N1` (centres unmarked) [SIAIS1220065, 3-(4-((9-morpholinononyl)thio)-1-oxoisoindolin-2-yl)piperidine-2,6-dione], for which the IC50 was determined as 0.49 nM.

Regarding `CCN(CC)CCCCCCCCCSc1cccc2c1CN(C1CCC(=O)NC1=O)C2=O` (centres unmarked) [SIAIS1220067, 3-(4-((9-(diethylamino)nonyl)thio)-1-oxoisoindolin-2-yl)piperidine-2,6-dione], the IC50 was 0.25 nM.

With `O=C1CCC(N2Cc3c(SCCCCCO)cccc3C2=O)C(=O)N1` (centres unmarked) [SIAIS1220069, 3-(4-((5-hydroxypentyl)thio)-1-oxoisoindolin-2-yl)piperidine-2,6-dione], the IC50 was 3.21 nM.

Take `O=C1CCC(N2Cc3c(SCCCCCCCCNC45CC6CC(CC(C6)C4)C5)cccc3C2=O)C(=O)N1` (centres unmarked) [SIAIS1220087, 3-(4-((8-((adamantan-1-yl)amino)octyl)thio)-1-oxoisoindolin-2-yl)piperidine-2,6-dione]: the IC50 is 0.12 nM.

`O=C1CCC(N2Cc3c(SCCCCCCCCNC4C5CC6CC(C5)CC4C6)cccc3C2=O)C(=O)N1` (centres unmarked) [SIAIS1220089, 3-(4-((8-((adamantan-2-yl)amino)octyl)thio)-1-oxoisoindolin-2-yl)piperidine-2,6-dione]: the IC50 was 0.07 nM.

For the compound `CC[N+](CC)(CC)CCCCCCCCSc1cccc2c1CN(C1CCC(=O)NC1=O)C2=O` (centres unmarked) [SIAIS1220093, 8-((2-(2,6-dioxopiperidin-3-yl)-1-oxoisoindolin-4-yl)thio)-N,N,N-triethyloctan-1-aminium chloride], the IC50 worked out at 8.2 nM.

As to `O=C1CCC(N2Cc3c(SCCCCCCCN4CCCCC4)cccc3C2=O)C(=O)N1` (centres unmarked) [SIAIS1220105, 3-(1-oxo-4-((7-(piperidin-1-yl)heptyl)thio)isoindolin-2-yl)piperidine-2,6-dione], the IC50 is 0.06 nM.

Regarding `CC(C)N(CCCCCCCSc1cccc2c1CN(C1CCC(=O)NC1=O)C2=O)C(C)C` (centres unmarked) [SIAIS1220107, 3-(4-((7-(diisopropylamino)heptyl)thio)-1-oxoisoindolin-2-yl)piperidine-2,6-dione], the IC50 turned out to be 0.03 nM.

Take `O=C1CCC(N2Cc3c(SCCCCCCC(=O)N4CCCCC4)cccc3C2=O)C(=O)N1` (centres unmarked) [SIAIS1220115, 3-(1-oxo-4-((7-oxo-7-(piperidin-1-yl)heptyl)thio)isoindolin-2-yl)piperidine-2,6-dione]: the IC50 amounted to 0.05 nM.

Consider `CC(C)N(C(=O)CCCCCCSc1cccc2c1CN(C1CCC(=O)NC1=O)C2=O)C(C)C` (centres unmarked) [SIAIS1220117, 7-((2-(2,6-dioxopiperidin-3-yl)-1-oxoisoindolin-4-yl)thio)-N,N-diisopropylheptanamide], for which the IC50 amounted to 0.07 nM.

For the compound `O=C1CCC(N2Cc3c(SCCCCCCCCCSCCCC(F)(F)C(F)(F)F)cccc3C2=O)C(=O)N1` (centres unmarked) [SIAIS1220131, 3-(1-oxo-4-((9-((4,4,5,5,5-pentafluoropentyl)thio)nonyl)thio)isoindolin-2-yl)piperidine-2,6-dione], the IC50 is 9.71 nM.

Consider `O=C1CCC(N2Cc3c(SCCCC(F)(F)C(F)(F)F)cccc3C2=O)C(=O)N1` (centres unmarked) [SIAIS1220133, 3-(1-oxo-4-((4,4,5,5,5-pentafluoropentyl)thio)isoindolin-2-yl)piperidine-2,6-dione], for which the IC50 was determined as 4.73 nM.

Consider `O=C1CCC(N2Cc3c(SCCCCCCCCS)cccc3C2=O)C(=O)N1` (centres unmarked) [SIAIS1220143, 3-(4-((8-mercaptooctyl)thio)-1-oxoisoindolin-2-yl)piperidine-2,6-dione], for which the IC50 was 2.73 nM.

On to `O=C1CCC(N2Cc3c(SCCCCCCCCC[S+]([O-])CCCC(F)(F)C(F)(F)F)cccc3C2=O)C(=O)N1` (centres unmarked) [SIAIS1220145, 3-(1-oxo-4-((9-((4,4,5,5,5-pentafluoropentyl)sulfinyl)nonyl)thio)isoindolin-2-yl)piperidine-2,6-dione], for which the IC50 was 4.73 nM.

In the case of `O=C1CCC(N2Cc3c(SCCCCCCCCCS(=O)(=O)CCCC(F)(F)C(F)(F)F)cccc3C2=O)C(=O)N1` (centres unmarked) [SIAIS1220147, 3-(1-oxo-4-((9-((4,4,5,5,5-pentafluoropentyl)sulfonyl)nonyl)thio)isoindolin-2-yl)piperidine-2,6-dione], the IC50 was found to be 1.59 nM.

In the case of `CC12CC3CC(C)(C1)CC(NCCCCCCCSc1cccc4c1CN(C1CCC(=O)NC1=O)C4=O)(C3)C2` (centres unmarked) [SIAIS1220157, 3-(4-((7-((3,5-dimethyladamantan-1-yl)amino)heptyl)thio)-1-oxoisoindolin-2-yl)piperidine-2,6-dione], the IC50 worked out at 0.02 nM.

`O=C1CCC(N2Cc3c(SCCCCCCCNC4C5CC6CC(C5)CC4C6)cccc3C2=O)C(=O)N1` (centres unmarked) [SIAIS1220159, 3-(4-((7-((adamantan-2-yl)amino)heptyl)thio)-1-oxoisoindolin-2-yl)piperidine-2,6-dione]: the IC50 is 0.01 nM.

On to `O=C1CCC(N2Cc3c(SCCCCCCCN4CCCC4)cccc3C2=O)C(=O)N1` (centres unmarked) [SIAIS1220161, 3-(1-oxo-4-((7-(pyrrolidin-1-yl)heptyl)thio)isoindolin-2-yl)piperidine-2,6-dione], for which the IC50 worked out at 0.12 nM.

On to `O=C1CCC(N2Cc3c(SCCCCCCCN4CCCCCC4)cccc3C2=O)C(=O)N1` (centres unmarked) [SIAIS1220163, 3-(4-((7-(azepan-1-yl)heptyl)thio)-1-oxoisoindolin-2-yl)piperidine-2,6-dione], for which the IC50 worked out at 0.03 nM.

`O=C1CCC(N2Cc3c(SCc4ccc(CN5CCOCC5)cc4)cccc3C2=O)C(=O)N1` (centres unmarked) [SIAIS1220167, 3-(4-((4-(morpholinomethyl)benzyl)thio)-1-oxoisoindolin-2-yl)piperidine-2,6-dione]: the IC50 is 0.25 ± 0.01 nM.

Turning to `O=C(CCCCN1CCCCC1)NCCSc1cccc2c1CN(C1CCC(=O)NC1=O)C2=O` (centres unmarked) [SIAIS1220169, N-(2-((2-(2,6-dioxopiperidin-3-yl)-1-oxoisoindolin-4-yl)thio)ethyl)-5-(piperidin-1-yl)pentanamide], the IC50 turned out to be 43 nM.
